This note sets out measurements from patent US20250163054A1, “SUBSTITUTED BICYCLIC HETEROARYL COMPOUNDS USEFUL AS INHIBITORS OF TLR9” (Bristol-Myers Squibb Company, priority 2022, published 2025).

Common to all, as to format: cell-based
One experiment has as its target T1, human TLR7 (Homo sapiens, UniProt Q9NYK1).
T1 construct: host or cells: HEK-Blue cells (HEK293-derived reporter line)
T1 sequence (Q9NYK1 27-1049): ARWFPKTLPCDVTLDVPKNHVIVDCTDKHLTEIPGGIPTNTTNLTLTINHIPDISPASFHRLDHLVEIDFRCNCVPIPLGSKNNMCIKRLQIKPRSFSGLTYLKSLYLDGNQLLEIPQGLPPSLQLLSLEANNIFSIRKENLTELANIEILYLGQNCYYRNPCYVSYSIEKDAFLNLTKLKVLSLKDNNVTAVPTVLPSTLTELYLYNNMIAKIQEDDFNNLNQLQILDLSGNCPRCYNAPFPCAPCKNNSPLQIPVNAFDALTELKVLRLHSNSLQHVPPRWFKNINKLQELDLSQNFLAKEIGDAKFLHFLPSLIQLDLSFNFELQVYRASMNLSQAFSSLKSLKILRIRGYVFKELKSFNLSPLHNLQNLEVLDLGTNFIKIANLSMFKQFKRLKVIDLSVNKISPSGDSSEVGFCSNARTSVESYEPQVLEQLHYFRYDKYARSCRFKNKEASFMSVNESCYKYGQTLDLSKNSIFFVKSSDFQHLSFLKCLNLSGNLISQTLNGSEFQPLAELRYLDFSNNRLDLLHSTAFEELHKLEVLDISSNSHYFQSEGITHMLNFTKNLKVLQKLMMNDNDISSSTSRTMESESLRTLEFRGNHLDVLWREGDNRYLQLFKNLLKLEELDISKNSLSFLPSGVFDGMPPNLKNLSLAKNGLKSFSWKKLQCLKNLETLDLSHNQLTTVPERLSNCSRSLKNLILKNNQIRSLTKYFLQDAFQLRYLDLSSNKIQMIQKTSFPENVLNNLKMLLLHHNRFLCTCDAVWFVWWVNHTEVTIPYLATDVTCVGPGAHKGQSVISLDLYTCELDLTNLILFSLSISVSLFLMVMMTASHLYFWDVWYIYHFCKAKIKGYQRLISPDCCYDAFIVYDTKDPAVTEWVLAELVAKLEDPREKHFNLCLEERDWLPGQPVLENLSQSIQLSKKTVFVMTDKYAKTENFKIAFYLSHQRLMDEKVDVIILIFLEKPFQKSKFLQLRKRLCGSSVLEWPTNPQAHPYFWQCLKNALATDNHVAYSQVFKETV
Kind of experiment: TLR7/8/9 Inhibition Reporter Assays (TLR7). Conditions: HEK-Blue cells overexpressing human TLR7, SEAP reporter, stimulated with TLR7 ligand gardiquimod. In a few lines:
(§1)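 HEK-Blue cells overexpressing human TLR7, TLR8 or TLR9 with NF-κB/AP-1-driven SEAP reporter, pre-treated 60 min with compound ([…]). Stimulated with […] (TLR7), […] (TLR8) or ODN2006 200 nM (TLR9), then 22 h at 37° C; SEAP measured, % inhibition relative to agonist-plus-DMSO and known-inhibitor wells.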

The target of another experiment is T2, human TLR9 (Homo sapiens, UniProt Q9NR96).
T2 construct: host or cells: HEK-Blue cells (HEK293-derived reporter line)
T2 sequence (Q9NR96 26-1032): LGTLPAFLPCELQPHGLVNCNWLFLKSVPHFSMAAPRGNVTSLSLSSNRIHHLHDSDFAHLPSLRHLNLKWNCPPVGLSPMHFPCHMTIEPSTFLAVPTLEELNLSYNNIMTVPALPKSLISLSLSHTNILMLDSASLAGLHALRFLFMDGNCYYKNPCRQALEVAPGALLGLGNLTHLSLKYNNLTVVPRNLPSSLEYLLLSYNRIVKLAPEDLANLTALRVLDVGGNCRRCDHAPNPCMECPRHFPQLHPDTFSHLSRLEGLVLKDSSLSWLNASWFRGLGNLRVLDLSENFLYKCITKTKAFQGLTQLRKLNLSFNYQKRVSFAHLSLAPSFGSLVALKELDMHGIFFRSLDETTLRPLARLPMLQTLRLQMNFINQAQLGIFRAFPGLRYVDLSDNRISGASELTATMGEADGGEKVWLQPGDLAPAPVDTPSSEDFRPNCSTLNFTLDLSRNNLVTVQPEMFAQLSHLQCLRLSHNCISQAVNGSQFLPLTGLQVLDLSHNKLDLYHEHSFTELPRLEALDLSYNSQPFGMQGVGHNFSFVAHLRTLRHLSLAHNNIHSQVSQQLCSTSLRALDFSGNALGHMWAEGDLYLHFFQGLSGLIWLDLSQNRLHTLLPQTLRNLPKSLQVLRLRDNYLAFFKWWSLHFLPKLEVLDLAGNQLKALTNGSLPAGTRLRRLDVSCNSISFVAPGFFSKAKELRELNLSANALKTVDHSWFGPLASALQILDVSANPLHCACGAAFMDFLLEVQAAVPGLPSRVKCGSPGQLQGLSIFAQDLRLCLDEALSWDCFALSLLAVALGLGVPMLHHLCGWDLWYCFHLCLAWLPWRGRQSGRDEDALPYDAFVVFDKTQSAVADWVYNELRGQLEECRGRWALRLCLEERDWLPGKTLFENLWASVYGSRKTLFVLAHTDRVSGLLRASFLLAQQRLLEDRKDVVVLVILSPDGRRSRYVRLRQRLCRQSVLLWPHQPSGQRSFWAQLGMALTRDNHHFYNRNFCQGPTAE
Kind of experiment: TLR7/8/9 Inhibition Reporter Assays (TLR9). Conditions: HEK-Blue cells overexpressing human TLR9, SEAP reporter, stimulated with TLR9 ligand ODN2006. The method in brief: as §1

The target in the next experiment is T3, human TLR8 (Homo sapiens, UniProt Q9NR97).
T3 construct: host or cells: HEK-Blue cells (HEK293-derived reporter line)
T3 sequence (Q9NR97 27-1041): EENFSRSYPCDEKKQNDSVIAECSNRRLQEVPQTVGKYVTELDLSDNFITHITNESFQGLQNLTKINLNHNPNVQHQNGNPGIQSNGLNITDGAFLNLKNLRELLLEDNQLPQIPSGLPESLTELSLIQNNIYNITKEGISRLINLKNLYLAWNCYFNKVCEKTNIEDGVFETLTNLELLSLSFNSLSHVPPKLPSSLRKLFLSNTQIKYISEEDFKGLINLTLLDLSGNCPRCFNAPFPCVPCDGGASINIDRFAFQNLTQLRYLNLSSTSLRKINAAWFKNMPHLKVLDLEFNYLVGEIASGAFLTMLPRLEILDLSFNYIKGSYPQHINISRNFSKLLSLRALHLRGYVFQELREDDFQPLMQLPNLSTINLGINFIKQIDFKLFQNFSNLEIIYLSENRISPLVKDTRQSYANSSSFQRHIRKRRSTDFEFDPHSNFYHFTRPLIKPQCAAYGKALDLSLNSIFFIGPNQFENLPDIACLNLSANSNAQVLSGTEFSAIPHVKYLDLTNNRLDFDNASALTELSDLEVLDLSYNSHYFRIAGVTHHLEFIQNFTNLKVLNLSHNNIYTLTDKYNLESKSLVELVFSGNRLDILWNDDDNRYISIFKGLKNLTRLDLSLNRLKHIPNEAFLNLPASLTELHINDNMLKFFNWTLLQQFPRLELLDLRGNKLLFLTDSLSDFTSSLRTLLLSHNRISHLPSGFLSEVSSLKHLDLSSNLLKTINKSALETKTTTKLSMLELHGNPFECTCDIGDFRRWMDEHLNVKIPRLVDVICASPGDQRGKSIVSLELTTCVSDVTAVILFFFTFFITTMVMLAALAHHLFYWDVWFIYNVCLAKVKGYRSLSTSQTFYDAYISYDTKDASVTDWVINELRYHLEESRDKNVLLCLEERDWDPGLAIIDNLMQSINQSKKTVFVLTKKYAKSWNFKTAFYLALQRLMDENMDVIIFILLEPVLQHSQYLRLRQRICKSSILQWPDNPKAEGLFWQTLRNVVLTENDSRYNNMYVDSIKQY
The experiment is described as follows: TLR7/8/9 Inhibition Reporter Assays (TLR8). Conditions: HEK-Blue cells overexpressing human TLR8, SEAP reporter, stimulated with TLR8 ligand R848. The method in brief:
as §1

Each structure is given as a SMILES string. Some results are limits rather than exact numbers.

With `Cc1cc(-c2nc3c(C)nc(-c4ccc(N5CCN(CC6CC6)CC5)cc4)cc3n2C)cc(C)n1` [Example 15, 6-(4-(4-(cyclopropylmethyl)piperazin-1-yl)phenyl)-2-(2,6-dimethylpyridin-4-yl)-1,4-dimethyl-1H-imidazo[4,5-c]pyridine], the IC50 on human TLR7 is 1100 nM; at human TLR9 it was 460 nM; against human TLR8, 18000 nM.

`COc1ccc(-c2nc3c(C)nc(-c4ccc(N5CC6(C5)CN(C(C)C)C6)cc4)cc3n2C)cc1OC` [Example 76, 2-(3,4-dimethoxyphenyl)-6-(4-(6-isopropyl-2,6-diazaspiro[3.3]heptan-2-yl)phenyl)-1,4-dimethyl-1H-imidazo[4,5-c]pyridine]: the results for the IC50 against human TLR7, on human TLR9 and at human TLR8 were 1800 nM, 23 nM and 3600 nM, respectively.

Consider `CC(C)CN1CC2(CCN(c3ccc(-c4cc5c(cn4)nc(-c4ccc(S(C)(=O)=O)cc4)n5C)cc3)CC2)C1` [Example 96, 6-(4-(2-isobutyl-2,7-diazaspiro[3.5]nonan-7-yl)phenyl)-1-methyl-2-(4-(methylsulfonyl)phenyl)-1H-imidazo[4,5-c]pyridine], for which the IC50 was determined as 3000 nM on human TLR7, 240 nM against human TLR9 and 990 nM against human TLR8.

For the molecule `Cc1nc(-c2ccc(N3C[C@H]4CN(CC(C)(C)O)C[C@H]4C3)cc2)cc2c1nc(-c1ccc(S(C)(=O)=O)cc1)n2C` [Example 93, 1-((3aR,6aS)-5-(4-(1,4-dimethyl-2-(4-(methylsulfonyl)phenyl)-1H-imidazo[4,5-c]pyridin-6-yl)phenyl)hexahydropyrrolo[3,4-c]pyrrol-2(1H)-yl)-2-methylpropan-2-ol], the IC50 against human TLR7 came out at 810 nM; against human TLR9, 79 nM; on human TLR8, 2000 nM.

On to `COCCN1CC2(CCN(c3ccc(-c4cc5c(cn4)nc(-c4ccc(S(C)(=O)=O)cc4)n5C)cc3)CC2)C1` [Example 105, 6-(4-(2-(2-methoxyethyl)-2,7-diazaspiro[3.5]nonan-7-yl)phenyl)-1-methyl-2-(4-(methylsulfonyl)phenyl)-1H-imidazo[4,5-c]pyridine], for which the values for the concentration for half-maximal inhibition (IC50) against human TLR7, against human TLR9 and against human TLR8 were 4500 nM, 600 nM and 2200 nM, respectively.

Take `CC(C)CN1CC2(CCN(c3ccc(-c4cc5c(cn4)nc(-c4ccc(S(C)(=O)=O)cc4)n5C4CC4)cc3)CC2)C1` [Example 86, 1-cyclopropyl-6-(4-(2-isobutyl-2,7-diazaspiro[3.5]nonan-7-yl)phenyl)-2-(4-(methylsulfonyl)phenyl)-1H-imidazo[4,5-c]pyridine]: the IC50 was determined as 6700 nM on human TLR7, 270 nM at human TLR9 and 3000 nM against human TLR8.

On to `COc1ccc(-c2nc3c(C)nc(-c4ccc(N5CCN(C(C)C)CC5)cc4)cc3n2C)cc1OC` [Example 1, 2-(3,4-dimethoxyphenyl)-6-(4-(4-isopropylpiperazin-1-yl)phenyl)-1,4-dimethyl-1H-imidazo[4,5-c]pyridine], for which the IC50 is 1000 nM on human TLR7, 220 nM against human TLR9 and 7400 nM at human TLR8.

For the molecule `Cc1nc(-c2ccc(N3CC4(C3)CN(C3COC3)C4)cc2)cc2c1nc(-c1ccc(S(C)(=O)=O)cc1)n2C` [Example 107, 1,4-dimethyl-2-(4-(methylsulfonyl)phenyl)-6-(4-(6-(oxetan-3-yl)-2,6-diazaspiro[3.3]heptan-2-yl)phenyl)-1H-imidazo[4,5-c]pyridine], the IC50 at human TLR7 is 30000 nM; at human TLR9, 980 nM; against human TLR8, greater than 50000 nM.

Consider `COc1ccc(-c2nc3c(C)nc(-c4ccc(N5CCC6(CC5)CN(C(C)C)C6)cc4)cc3n2C)cc1OC` [Example 60, 2-(3,4-dimethoxyphenyl)-6-(4-(2-isopropyl-2,7-diazaspiro[3.5]nonan-7-yl)phenyl)-1,4-dimethyl-1H-imidazo[4,5-c]pyridine], for which the figures for the IC50 at human TLR7, on human TLR9 and against human TLR8 were 2300 nM, 140 nM and 37000 nM, respectively.

Regarding `Cc1nc(-c2ccc(C3CCN(CC4COC4)CC3)cc2)cc2c1nc(-c1ccc(S(C)(=O)=O)cc1)n2C` [Example 29, 1,4-dimethyl-2-(4-(methylsulfonyl)phenyl)-6-(4-(1-(oxetan-3-ylmethyl)piperidin-4-yl)phenyl)-1H-imidazo[4,5-c]pyridine], the half-inhibitory concentration (IC50) on human TLR7 was 13000 nM; against human TLR9 it was 1100 nM; against human TLR8 it was greater than 50000 nM.

With `Cc1nc(-c2ccc(N3CCN(C(C)C)CC3)cc2)cc2c1nc(-c1ccc(S(C)(=O)=O)cc1)n2C` [Example 6, 6-(4-(4-isopropylpiperazin-1-yl)phenyl)-1,4-dimethyl-2-(4-(methylsulfonyl)phenyl)-1H-imidazo[4,5-c]pyridine], the IC50 on human TLR7 stood at 3100 nM; against human TLR9, 800 nM; on human TLR8 it was 3000 nM.
